# Results reported in patent publication US20190100534A1, “Cephem Compounds with Latent Reactive Groups” (Gladius Pharmaceuticals, Inc., priority 2017, published 2019).
# Columns and labels:
# ENA (URMC-2) = assay: MIC determination; format: cell-based, Enterobacter aerogenes; details: Klebsiella aerogenes, CAMH broth, 20 μM Apo-Transferrin, 37° C., 18 hours, read-out: Minimum Inhibitory Concentrations, ENA (URMC-2)
# Description: (§1) Sterile technique was used throughout these experiments. Suspensions of organisms were removed from storage (−80° C.) and partially thawed. Partially thawed organisms (1 μL) were inoculated into 3 mL sterile LB Broth in a sterile culture tube and capped, then cultured at 37° C. with shaking for 4-5 hours until the optical density at 600 nm (OD600) was greater than 0.1 on a single beam spectrophotometer.
# (§2) The concentration of organisms was adjusted to 0.08-0.1 OD600 (0.5 McFarland units) by dilution with sterile cation-adjusted Meuller-Hinton (CAMH) broth. The suspensions were used within 30 minutes of preparation.
# (§3) A stock solution was made of each test compound by measuring 6.4 mg of the compound on an analytical balance and dissolving it in DMSO (1 mL) to get a transparent solution. The solutions were stored at −20° C. and thawed prior to use.
# (§4) Sterile CAMH broth (200 μL) containing 20 μM Apo-Transferrin was pipetted into the first row of 8 columns of a sterile, round-bottomed, transparent, 96-well microplate using an 8-channel pipette equipped with sterile tips. One hundred μL was pipetted into the wells of the remaining 11 rows.
# (§5) With an 8-channel pipette equipped with sterile tips, 100 μL of the first row solution was transferred to the second row and mixed. The process was repeated for the second to third rows and continued through row 11. One hundred μL from row 11 was removed and discarded so that all 12 rows contained 100 μL. Row 12 contained no compound and rows 1-11 contained 64, 32, 16, 8, 4, 2, 1, 0.5, 0.25, 0.125, […] of a given compound.
# (§6) Inoculant suspensions (0.5 μL) were added to the 12 wells of each column. The plates were then covered and incubated at 37° C. overnight for 18 hours.
# (§7) For each organism the MIC was determined by identifying the transparent well with the lowest test compound concentration.
# ENA (URMC-1) = assay: MIC determination; format: cell-based, Enterobacter aerogenes; details: Klebsiella aerogenes, CAMH broth, 20 μM Apo-Transferrin, 37° C., 18 hours, read-out: Minimum Inhibitory Concentrations, ENA (URMC-1)
# Description: as §1, §2, §3, §4, §5, §6, §7
# [1] = test system: Pseudomonas aeruginosa (PA); assay: MIC determination; format: cell-based; details: Pseudomonas aeruginosa; PA; CAMH broth, 20 μM Apo-Transferrin, 37° C., 18 hours; read-out: Minimum Inhibitory Concentrations, PA
# In short: (§8)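 Growth inhibition was judged by well clarity after 18 h at 37 °C in transferrin-supplemented (20 μM apo form) CAMH. Standardized suspensions (0.08-0.1 OD600) were added within 30 min of preparation.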
# [2] = test system: Pseudomonas aeruginosa PA (RR-1); assay: MIC determination; format: cell-based; details: Pseudomonas aeruginosa; PA (RR-1); CAMH broth, 20 μM Apo-Transferrin, 37° C., 18 hours; read-out: Minimum Inhibitory Concentrations, PA (RR-1)
# In short: as §8
# [3] = test system: Pseudomonas aeruginosa PA (URMC-2); assay: MIC determination; format: cell-based; details: Pseudomonas aeruginosa; PA (URMC-2); CAMH broth, 20 μM Apo-Transferrin, 37° C., 18 hours; read-out: Minimum Inhibitory Concentrations, PA (URMC-2)
# In short: as §8
# [4] = test system: Pseudomonas aeruginosa PA-RR-(G7305586); assay: MIC determination; format: cell-based; details: Pseudomonas aeruginosa; PA-RR-(G7305586); CAMH broth, 20 μM Apo-Transferrin, 37° C., 18 hours; read-out: Minimum Inhibitory Concentrations, PA-RR-(G7305586)
# In short: as §8
# [5] = test system: Pseudomonas aeruginosa PA-RR-(980151052); assay: MIC determination; format: cell-based; details: Pseudomonas aeruginosa; PA-RR-(980151052); CAMH broth, 20 μM Apo-Transferrin, 37° C., 18 hours; read-out: Minimum Inhibitory Concentrations, PA-RR-(980151052)
# In short: as §8
# [6] = test system: Pseudomonas aeruginosa PA-RR-(purple Fre D); assay: MIC determination; format: cell-based; details: Pseudomonas aeruginosa, CAMH broth, 20 μM Apo-Transferrin, 37° C., 18 hours, read-out: Minimum Inhibitory Concentrations, PA-RR-(purple Fre D)
# In short: as §8
# [7] = test system: Pseudomonas aeruginosa PA (RR-2); assay: MIC determination; format: cell-based; details: Pseudomonas aeruginosa; PA (RR-2); CAMH broth, 20 μM Apo-Transferrin, 37° C., 18 hours; read-out: Minimum Inhibitory Concentrations, PA (RR-2)
# In short: as §8
# CF (RR -1) = assay: MIC determination; format: cell-based, Citrobacter freundii; details: CAMH broth, 20 μM Apo-Transferrin, 37° C., 18 hours
# Description: as §1, §2, §3, §4, §5, §6, §7
# EC(KB1 CTX-M-15) = assay: MIC determination; format: cell-based, Escherichia coli; details: Escherichia coli, CAMH broth, 20 μM Apo-Transferrin, 37° C., 18 hours, read-out: Minimum Inhibitory Concentrations, EC(KB1 CTX-M-15)
# Description: as §1, §2, §3, §4, §5, §6, §7
# EC (RR -2) = assay: MIC determination; format: cell-based, Escherichia coli; details: CAMH broth, 20 μM Apo-Transferrin, 37° C., 18 hours
# Description: as §1, §2, §3, §4, §5, §6, §7
# EC(KB2 CTX-M-15) = assay: MIC determination; format: cell-based, Escherichia coli; details: Escherichia coli, CAMH broth, 20 μM Apo-Transferrin, 37° C., 18 hours, read-out: Minimum Inhibitory Concentrations, EC(KB2 CTX-M-15)
# Description: as §1, §2, §3, §4, §5, §6, §7
# EC(ATCC NDM-1) = assay: MIC determination; format: cell-based, Escherichia coli; details: Escherichia coli, CAMH broth, 20 μM Apo-Transferrin, 37° C., 18 hours, read-out: Minimum Inhibitory Concentrations, EC(ATCC NDM-1)
# Description: as §1, §2, §3, §4, §5, §6, §7
# EC(JMI OXA-48) = assay: MIC determination; format: cell-based, Escherichia coli; details: Escherichia coli, CAMH broth, 20 μM Apo-Transferrin, 37° C., 18 hours, read-out: Minimum Inhibitory Concentrations, EC(JMI OXA-48)
# Description: as §1, §2, §3, §4, §5, §6, §7
# EC (URMC-3) = assay: MIC determination; format: cell-based, Escherichia coli; details: Escherichia coli, CAMH broth, 20 μM Apo-Transferrin, 37° C., 18 hours, read-out: Minimum Inhibitory Concentrations, EC (URMC-3)
# Description: as §1, §2, §3, §4, §5, §6, §7
# EC (URMC-2) = assay: MIC determination; format: cell-based, Escherichia coli; details: Escherichia coli, CAMH broth, 20 μM Apo-Transferrin, 37° C., 18 hours, read-out: Minimum Inhibitory Concentrations, EC (URMC-2)
# Description: as §1, §2, §3, §4, §5, §6, §7
# EC (URMC-1) = assay: MIC determination; format: cell-based, Escherichia coli; details: Escherichia coli, CAMH broth, 20 μM Apo-Transferrin, 37° C., 18 hours, read-out: Minimum Inhibitory Concentrations, EC (URMC-1)
# Description: as §1, §2, §3, §4, §5, §6, §7
# EC (RR -1) = assay: MIC determination; format: cell-based, Escherichia coli; details: CAMH broth, 20 μM Apo-Transferrin, 37° C., 18 hours
# Description: as §1, §2, §3, §4, §5, §6, §7
# KP (ATCC KPC-3) = assay: MIC determination; format: cell-based, Klebsiella pneumoniae; details: CAMH broth, 20 μM Apo-Transferrin, 37° C., 18 hours
# Description: as §1, §2, §3, §4, §5, §6, §7
# KP (URMC-3) = assay: MIC determination; format: cell-based, Klebsiella pneumoniae; details: CAMH broth, 20 μM Apo-Transferrin, 37° C., 18 hours
# Description: as §1, §2, §3, §4, §5, §6, §7
# KP (GJ 5659 TEM-26) = assay: MIC determination; format: cell-based, Klebsiella pneumoniae; details: CAMH broth, 20 μM Apo-Transferrin, 37° C., 18 hours
# Description: as §1, §2, §3, §4, §5, §6, §7
# KP (URMC-1) = assay: MIC determination; format: cell-based, Klebsiella pneumoniae; details: CAMH broth, 20 μM Apo-Transferrin, 37° C., 18 hours
# Description: as §1, §2, §3, §4, §5, §6, §7
# KP (RR -1) = assay: MIC determination; format: cell-based, Klebsiella pneumoniae; details: CAMH broth, 20 μM Apo-Transferrin, 37° C., 18 hours
# Description: as §1, §2, §3, §4, §5, §6, §7
# KP(GJ 5934 TEM-26) = assay: MIC determination; format: cell-based, Klebsiella pneumoniae; details: CAMH broth, 20 μM Apo-Transferrin, 37° C., 18 hours
# Description: as §1, §2, §3, §4, §5, §6, §7
# KP (URMC-2) = assay: MIC determination; format: cell-based, Klebsiella pneumoniae; details: CAMH broth, 20 μM Apo-Transferrin, 37° C., 18 hours
# Description: as §1, §2, §3, §4, §5, §6, §7
# KP(JMI KPC-2) = assay: MIC determination; format: cell-based, Klebsiella pneumoniae; details: CAMH broth, 20 μM Apo-Transferrin, 37° C., 18 hours
# Description: as §1, §2, §3, §4, §5, §6, §7
# KP(ATCC TEM-10/TEM-12) = format: cell-based, Klebsiella pneumoniae; details: CAMH broth, 20 μM Apo-Transferrin, 37° C., 18 hours
# Description: as §1, §2, §3, §4, §5, §6, §7
structure (smiles),measurement,setting,value
"CC(C)(O/N=C(\C(=O)N[C@@H]1C(=O)N2C(C(=O)O)=C(C=Cc3ccc(C[n+]4ccc(-c5ccc(O)c(O)c5)cc4)cc3)CS[C@H]12)c1csc(N)n1)C(=O)O (mixture of isomers) [Compound 412, 1-(4-((E/Z)-2-((6R,7R)-7-((Z)-2-(2-aminothiazol-4-yl)-2-(((2-carboxypropan-2-yl)oxy)imino)acetamido)-2-carboxy-8-oxo-5-thia-1-azabicyclo[4.2.0]oct-2-en-3-yl)vinyl)benzyl)-4-(3,4-dihydroxyphenyl)pyridin-1-ium]",MIC,ENA (URMC-2),0.13 µg/mL
same,MIC,ENA (URMC-1),0.25 µg/mL
same,MIC,[1],2 µg/mL
same,MIC,[2],4 µg/mL
same,MIC,[3],2 µg/mL
same,MIC,[4],16 µg/mL
same,MIC,[5],4 µg/mL
same,MIC,[6],2 µg/mL
same,MIC,[7],2 µg/mL
same,"Mimimum Inhibitory Concentrations, CF (RR -1)",CF (RR -1),≤0.06 microgram/mL
same,MIC,EC(KB1 CTX-M-15),16 µg/mL
same,"Mimimum Inhibitory Concentrations, EC (RR -2)",EC (RR -2),≤0.06 microgram/mL
same,MIC,EC(KB2 CTX-M-15),32 µg/mL
same,MIC,EC(ATCC NDM-1),> 64 µg/mL
same,MIC,EC(JMI OXA-48),2 µg/mL
same,MIC,EC (URMC-3),≤ 0.06 µg/mL
same,MIC,EC (URMC-2),4 µg/mL
same,MIC,EC (URMC-1),0.25 µg/mL
same,"Mimimum Inhibitory Concentrations, EC (RR -1)",EC (RR -1),0.25 microgram/mL
same,"Minimum Inhibitory Concentrations, KP (ATCC KPC-3)",KP (ATCC KPC-3),>64 microgram/mL
same,"Minimum Inhibitory Concentrations, KP (URMC-3)",KP (URMC-3),0.25 microgram/mL
same,"Minimum Inhibitory Concentrations, KP (GJ 5659 TEM-26)",KP (GJ 5659 TEM-26),2 microgram/mL
same,"Minimum Inhibitory Concentrations, KP (URMC-1)",KP (URMC-1),≤0.06 microgram/mL
same,"Mimimum Inhibitory Concentrations, KP (RR -1)",KP (RR -1),0.5 microgram/mL
same,"Minimum Inhibitory Concentrations, KP(GJ 5934 TEM-26)",KP(GJ 5934 TEM-26),0.5 microgram/mL
same,"Minimum Inhibitory Concentrations, KP (URMC-2)",KP (URMC-2),≤0.06 microgram/mL
same,"Minimum Inhibitory Concentrations, KP(JMI KPC-2)",KP(JMI KPC-2),64 microgram/mL
same,"Minimum Inhibitory Concentrations, KP(ATCC TEM-10/TEM-12)",KP(ATCC TEM-10/TEM-12),32 microgram/mL
